Marks after values point to notes of the source that are not given here.
How the values were obtained:
[1] = Safety and tolerability, TEAEs (Example 2); assay type: in vivo, human
Experimental: (§1) Safety and tolerability of Compound (a) was evaluated throughout the study, as described in Example 1.

[2] = Safety and tolerability, adverse events (Example 5); assay type: in vivo, human
Experimental: as §1

COc1cc(NC(C(=O)c2c[nH]c3ccc(OC(F)(F)F)cc23)c2ccc(Cl)cc2OC)cc(S(C)(=O)=O)c1 (stereo not drawn) [Compound (a)]
at least 1 TEAE reported ([1]; Panel 3, Treatment D (800 mg, fasted)): 9 (69.2%) # Participants (%) | at least 1 TEAE reported ([1]; Panel 3, Treatment E (800 mg, fed, standardized breakfast)): 6 (40.0%) # Participants (%) | at least 1 TEAE reported ([1]; Panel 4, Treatment F (200 mg, fasted)): 6 (46.2%) # Participants (%) | at least 1 TEAE reported ([1]; Panel 4, Treatment G (200 mg, fed, standardized breakfast)): 7 (58.3%) # Participants (%) | at least 1 TEAE reported ([1]; Panel 5, Treatment H (50 mg, fasted)): 5 (38.5%) # Participants (%) | at least 1 TEAE reported ([1]; Panel 5, Treatment I (50 mg, fed, standardized breakfast)): 8 (66.7%) # Participants (%) | Safety and tolerability, overall conclusion ([1]; single doses 50-800 mg SF2a/b, fasted or fed): safe and well tolerated | Related adverse events ([2]; Panel I (LD 450 mg twice daily for two days, MD 900 mg Q7D)): no related AEs | Related adverse events ([2]; Panel II (LD 450 mg twice daily for two days, MD 450 mg Q3D or Q4D)): one Grade 1 AE of skin burning sensation considered related | Related adverse events ([2]; Panel III (LD 150 mg twice daily for two days, MD 300 mg Q7D)): no related AEs | Related adverse events ([2]; Panel IV (LD 150 mg twice daily for two days, MD 150 mg Q3D or Q4D)): two Grade 1 AE of pruritic rash considered related | Grade 2 Treatment Emergent Events, overall ([2]; Panels I-IV): 4 | Grade 3 Treatment Emergent Events, overall ([2]; Panels I-IV): No | Safety and tolerability, overall conclusion ([2]; Panels I-IV): safe and well tolerated | serious adverse events (SAEs) or/and serious unexpected adverse reactions (SUSARs) observed ([2]; Panels I-IV): No
